Laboratory results: patent publication US7008949B2, “Heterocyclic compounds which inhibit leukocyte adhesion mediated by α4 integrins” (Elan Pharmaceuticals, Inc., priority 2003, dated 2006)
pIC50: −log10 of the molar value.

What was measured:
[1] = Cassette dosing and serum analysis for determination of oral bioavailability; assay type: in vivo, rat; conditions: male SD rats, oral cassette of 6 compounds, total dose 10 mg/kg, plasma at 4, 8, 12 h
Description: The oral bioavailability was screened by dosing rats with a cassette, i.e. mixture of 6 compounds per dosing solution. The cassette included 5 test articles and a standard compound, for a total dose of 10 mg/kg. Each compound/test article was converted to the sodium salt with equimolar 1 N NaOH and dissolved in water at 2 mg/mL. The cassette was prepared by mixing equal volumes of each of the six solutions. The cassette dosing solution was mixed well and then the pH was adjusted to 7.5–9. The dosing solution was prepared the day before the study and stirred overnight at room temperature.
Male Sprague Dawley (SD) rats from Charles River Laboratories, 6–8 weeks old were used in this screen. Rats were quarantined for at least one day and had continuous access to food and water. On the night before the administration of the cassette, the rats were fasted for approximately 16 h.
Four SD rats were assigned in each cassette. A single dose of the dosing solution was administered orally to each rat. The dosing volume (5 mL/kg) and time were recorded and rats were fed 2 h after dosing.
Blood samples were collected via cardiac puncture at the following time points: 4 h, 8 h and 12 h. Immediately prior to blood collection, rats were anesthetized with CO2 gas within 10–20 seconds. After the 12-hour samples were collected, the rats were euthanized via CO2 asphyxiation followed by cervical dislocation.
Blood samples were kept in heparinized microtainer tubes under sub-ambient temperature (4° C.) before they were processed. Blood samples were centrifuged (10000 rpm for 5 minutes) and plasma samples were removed and stored in a −20° C. freezer until analyzed for drug levels. Drug levels in the plasma were analyzed using the following protocol for direct plasma precipitation.
The in vivo plasma samples were prepared in a 1.5 mL 96-well plate, by adding, in order, 100 μL of the test plasma, 150 μL of methanol, followed by vortexing for 10–20 seconds. 150 μL of 0.05 ng/μL of an Internal Standard in acetonitrile were added and vortexed for 30 seconds.
The standard curve samples were prepared in a 1.5 mL 96-well plate, by adding, in order, 100 μL of control mouse plasma, followed by 150 μL of methanol and vortexing for 10–20 seconds. 150 μL of 0.05 ng/μL of an Internal Standard in acetonitrile were added and vortexed for 30 seconds. The samples were spiked with 0–200 ng (10 concentrations) of the compound of interest in 50% methanol to obtain a standard curve range of 0.5 ng/mL–2,000 ng/mL. Again, the sample was vortexed for 30 seconds.
The samples were then spun for 20–30 minutes at 3000 rpm in an Eppendorf microfuge before 80–90% of supernatant was transferred into a clean 96-well plate. The organic solvent was then evaporated until the samples were dry (under N2 at 40° C./30–60 min (ZymarkTurbovap)).
The residue was then dissolved in […] mobile phase (50% CH3OH/0.1% TFA). LC/MS/MS was then run using a PE-Sciex API-3000 triple quadurpole mass spectrometer (SN0749707), Perkin-Elmer, Series200auto-sampler, and shimadzu 10A pump. Acquisition was done with PE-Sciex Analyst (v1.1) and data analysis and quantification were accomplished using PE-Sciex Analyst (v1.1). A 5–50 μL sample volume was injected onto a reverse phase ThermoHypersil DASH-18 column (Keystone 2.0×20 mm, 5 μm, PN: 8823025-701) using a mobile phase of 25% CH3OH, 0.1% TFA-100% CH3OH, 0.1% TFA. The run time was about 8 minutes at a flow rate of about 300 μL/minutes.
The Area Under the Curve (AUC) was calculated using the linear trapezoidal rule from t=0 to the last sampling time tx (see Handbook of Basic Pharmacokinetics, Wolfgang A. Ritschel and Gregory L. Kearns, 5th ed, 1999). AUC^0→tx═S((Cn+Cn+1)/2))·(tn+1−tn)[(μg/mL)h]
In the case of the cassette dosing paradigm, samples at 4, 8 and 12 h post extravascular dosing, the AUC was calculated from t=0 to t=12 h.

α4β1 Integrin = target: T1, α4β1 Integrin (Homo sapiens, UniProt P05556+P13612); test: α4β1 Integrin Adhesion Assay: Jurkat cell adhesion to human plasma fibronectin; assay type: cell-based; conditions: Jurkat cells
T1 construct: endogenous in cells; host or cells: Jurkat cells
T1 sequence (P13612 34-1032): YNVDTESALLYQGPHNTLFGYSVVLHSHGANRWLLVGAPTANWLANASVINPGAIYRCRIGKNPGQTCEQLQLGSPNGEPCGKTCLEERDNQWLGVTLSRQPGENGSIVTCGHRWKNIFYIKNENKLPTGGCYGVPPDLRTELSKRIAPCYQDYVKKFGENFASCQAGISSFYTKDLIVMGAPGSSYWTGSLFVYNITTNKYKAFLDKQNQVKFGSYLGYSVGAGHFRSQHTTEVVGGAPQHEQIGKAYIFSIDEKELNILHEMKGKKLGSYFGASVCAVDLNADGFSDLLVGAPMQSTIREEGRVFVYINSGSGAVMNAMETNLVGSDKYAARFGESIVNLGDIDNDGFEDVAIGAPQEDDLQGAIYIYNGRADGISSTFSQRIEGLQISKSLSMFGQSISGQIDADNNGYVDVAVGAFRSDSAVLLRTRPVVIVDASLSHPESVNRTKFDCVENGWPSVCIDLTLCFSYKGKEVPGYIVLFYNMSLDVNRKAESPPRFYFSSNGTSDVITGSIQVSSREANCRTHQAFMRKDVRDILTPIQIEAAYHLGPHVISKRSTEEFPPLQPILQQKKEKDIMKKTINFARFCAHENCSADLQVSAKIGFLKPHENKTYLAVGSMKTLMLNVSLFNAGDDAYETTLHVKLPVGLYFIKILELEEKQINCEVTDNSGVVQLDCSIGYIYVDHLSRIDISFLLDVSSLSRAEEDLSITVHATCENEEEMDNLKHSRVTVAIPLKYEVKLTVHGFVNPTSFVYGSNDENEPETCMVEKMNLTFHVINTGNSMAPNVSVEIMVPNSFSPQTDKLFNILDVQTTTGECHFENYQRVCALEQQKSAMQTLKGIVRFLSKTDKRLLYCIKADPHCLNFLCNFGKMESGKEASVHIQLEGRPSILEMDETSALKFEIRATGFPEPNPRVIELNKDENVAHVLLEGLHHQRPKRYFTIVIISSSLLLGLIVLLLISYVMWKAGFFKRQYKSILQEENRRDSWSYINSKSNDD
T1 sequence (P05556 21-798): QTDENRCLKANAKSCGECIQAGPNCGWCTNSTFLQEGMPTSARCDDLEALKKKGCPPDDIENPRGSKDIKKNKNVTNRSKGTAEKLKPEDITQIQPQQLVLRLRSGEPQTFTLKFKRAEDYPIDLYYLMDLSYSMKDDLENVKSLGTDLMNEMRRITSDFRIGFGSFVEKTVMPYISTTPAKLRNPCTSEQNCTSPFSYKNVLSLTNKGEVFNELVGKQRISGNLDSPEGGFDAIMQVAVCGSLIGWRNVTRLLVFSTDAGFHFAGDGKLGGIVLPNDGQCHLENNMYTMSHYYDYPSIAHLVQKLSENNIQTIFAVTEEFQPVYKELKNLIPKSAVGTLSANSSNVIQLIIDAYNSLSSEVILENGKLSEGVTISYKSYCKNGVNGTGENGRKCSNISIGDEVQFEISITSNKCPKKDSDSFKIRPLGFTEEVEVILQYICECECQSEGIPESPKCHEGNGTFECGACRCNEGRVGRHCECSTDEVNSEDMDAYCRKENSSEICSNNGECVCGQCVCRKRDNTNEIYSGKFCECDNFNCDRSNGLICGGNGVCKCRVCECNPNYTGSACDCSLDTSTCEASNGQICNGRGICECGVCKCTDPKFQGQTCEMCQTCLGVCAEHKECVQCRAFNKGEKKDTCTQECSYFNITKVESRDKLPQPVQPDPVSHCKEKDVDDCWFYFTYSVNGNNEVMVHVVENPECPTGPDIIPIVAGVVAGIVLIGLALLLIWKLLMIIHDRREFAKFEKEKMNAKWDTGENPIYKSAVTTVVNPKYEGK
Description: 96 well plates (Costar 3590 EIA plates) were coated with human fibronectin (Gibco/BRL, cat #33016-023) at a concentration of 10 μg/mL overnight at 4° C. The plates were then blocked with a solution of bovine serum albumin (BSA; 0.3%) in saline. Jurkat™ cells (maintained in log phase growth) were labeled with Calcein AM according to the manufacturer's instructions, and suspended at a concentration of 2×10^6 cells/mL in Hepes/Saline/BSA. The cells were then exposed to test and control compounds for 30 minutes at room temperature before transfer to individual wells of the fibronectin coated plate. Adhesion was allowed to occur for 35 minutes at 37° C. The wells were then washed by gentle aspiration and pipetting with fresh saline. Fluorescence associated with the remaining adherent cells was quantified using a fluorescence plate reader at EX 485/EM 530.
Cell cultures were prepared by first splitting the stationary phase Jurkat™ cells at 1:10 on day one, and 1:2 on day two to perform assay on day 3. The cells split 1:10 on day one were split 1:4 on day 3 for a day 4 assay.
The assay plates were prepared by first making a working solution of Gibco/BRL Human Fibronectin (cat # 33016-023) in PBS++, at 10 μg/mL.
A Costar 3590 EIA plate was then coated with 50 μL/well for 2 hours at room temperature (thought it can also be left overnight at 4° C.). Finally the plate was asperated and blocked with Hepes/Saline Buffer, 100 μL/well, for 1 hour at RT followed by washing three times with 150 μL of PBS++.
Compound dilutions were accomplished by preparing 1:3 serial dilutions of compounds as follows. For each plate (4 compounds/plate) 600 μL were added to 4 Bio-Rad Titertubes in a Titertube rack. Enough compound was added to each appropriate tube to give a 2× concentration using methods well known in the art. Using Falcon Flexiplates, 100 μL of Hepes/Saline buffer or human serum were added to rows B through G. A multi-channel pipetter set to 180 μL was used to with four tips spaced evenly the pipetter. Each set of four tubes was mixed 5 times and 180 μL of 2× compound was transferred to the first column of each compound dilution in Row B, leaving Row A empty. 180 μL were added to the other wells in Row A. Serial dilutions were performed down the plate by transferring 50 μL to the next dilution and mixing 5 times, changing tips each time after mixing. Dilutions were stopped at Row F. Row G had no compound present.
A 20 μg/mL solution in Hepes/Saline buffer or human serum, of 21/6 antibody was the positive control and was set aside in a reagent trough to add to cell suspension plate.
The cell staining was accomplished by first harvesting the log-phase Jurkat™ cells by centrifugation in 50 mL tubes (1100 rpm for 5 minutes). The cells were resuspended in 50 mL PBS++, spun, and resuspend in 20 mL PBS++. The cells were stained by adding 20 μL of Calcein AM for 30 minutes R.T. The volume was brought to 50 mL with Hepes/Saline buffer and the cells were counted, spun, and resuspend to 2×10^6 cells/mL in Hepes/Saline buffer or human serum.
The compounds were incubated using the following procedure. In a new flexiplate, 65 μL of stained cells were added to Rows B through H. Then 65 μL of 2× compounds were added to the appropriate rows following the plate setup and mixed 3×. 65 μL of 2×-21/6 antibody were added to Row H and mixed 3×. Finally the plate was incubated at room temperature for 30 minutes.
Fibronectin adhesion was measured using a fluorescent plate reader at EX 485/EM 530 after the following work up procedure. After incubation, the cells were mixed 3× and 100 μL were transferred to the Fibronectin coated plates and incubated at 37° C. for about 35 minutes. Each plate was washed, row by row, by gently pipetting 100 μL of R.T. PBS++ down the sides of the wells and turning the plate 90 degrees to aspirate. This procedure was repeated for a total of 3 washes. Each well was filled with 100 μL after washing by pipetting down the side of the well. […]

[2] = IC50, Cell Adhesion to Human Plasma Fibronectin (With Human Serum), with human serum
[3] = IC50, Cell Adhesion to Human Plasma Fibronectin (Without the Human Serum), without human serum

Row | Compound | AUC (average AUC 0→12 h) [1] | IC50, Cell Adhesion to Human Plasma Fibronectin (With Human Serum) (α4β1 Integrin; with human serum) [µg/mL] | IC50, Cell Adhesion to Human Plasma Fibronectin (Without the Human Serum) (α4β1 Integrin; without human serum) [µg/mL] | pIC50 (α4β1 Integrin; [2]) | pIC50 (α4β1 Integrin; [3])
1 | 2-{2-diethylamino-5-[(3,4-difluorobenzenesulfonyl) ethylamino]pyrimidin-4-ylamino}-3-(4-dimethylcarbamoyloxyphenyl) propionic acid [Example 12] | 0.8447 (μg/mL)h | 0.06 | 0.003 |  | 
2 | CCCN(c1cnc(N(CC)CC)nc1NC(Cc1ccc(OC(=O)N(C)C)cc1)C(=O)O)S(=O)(=O)c1ccc(F)cc1 (stereo not drawn) [Example 21, 2-{2-diethylamino-5-[(4-fluorobenzenesulfonyl)-n-propylamino]pyrimidin-4-ylamino}-3-(4-dimethylcarbamoyloxyphenyl) propionic acid] | 0.6321 (μg/mL)h |  |  | 6.19 | 8.29
3 | CCCCN(c1cnc(N(CC)CC)nc1NC(Cc1ccc(OC(=O)N(C)C)cc1)C(=O)O)S(=O)(=O)c1ccc(F)cc1 (stereo not drawn) [Example 24, 2-{2-diethylamino-5-[(4-fluorobenzenesulfonyl)-n-butylamino]pyrimidin-4-ylamino}-3-(4-dimethylcarbamoyloxyphenyl)propionic acid] | 0.4983 (μg/mL)h |  |  | 7.37 | 8.32
